Assay results from ChEMBL document CHEMBL1124471, “Design and synthesis of inhibitors of N8-acetylspermidine deacetylase” (J Med Chem, 1989).

Tested on: N8-acetylspermidine deacetylase (Rattus norvegicus); call rule not given here
Test: Inhibition of [acetyl-3H]-N8-Acetylspermidine deacetylase; NI = No inhibition

Ki app: Not Active
SMILES: COC(=O)NCCCCCCN
